Test results reported in publication PMC8231113, “Protein Secondary Structure Affects Glycan Clustering in Native Mass Spectrometry” (Life, 2021).

How the values were obtained:
[1] = target: T1, human apo-transferrin (apo-TFF) (Homo sapiens, UniProt P02787); assay: Native MS glycan clustering to reference protein apo-TFF; assay type: binding; conditions: on apo-TFF
T1 construct: purchased Sigma-Aldrich (Merck, Germany)
Protocol: (§1) Prior to MS analysis, purified P dimers were buffer exchanged to 150 mM ammonium acetate (Sigma-Aldrich, reagent grade ≥98%) at pH 7 via centrifugal filter units at 12,000× g at 4 °C (Vivaspin 500, MWCO 10000, Sartorius). Glycans for native MS analysis were mixed with 1 µM (per monomer) purified GII.4 Saga P dimer and 3 µM of the reference proteins at indicated concentrations. Native mass spectra were measured at room temperature in positive ion mode on a high mass modified LCT Premier mass spectrometer (Waters/Micromass, UK and MS Vision, the Netherlands) with a nano-ESI source. In house-made gold-coated electrospray capillaries were used for direct-sample infusion without any accessory chromatographic separation. The voltages and pressures were optimized for non-covalent protein complexes. The gas pressure used in the source hexapole was set between 6.5 and 6.8 × 10^−2 mbar argon optimized for minimal complex dissociation and the backing pressure of the source roughing pump was set between 7.0 and 8.5 mbar. Spectra were recorded with applied voltages for the capillary and cone of 1.20 kV and 240 V, respectively. Note that charge state distributions for P dimers were sometimes slightly shifted as was the degree of glycan clustering per charge state. These changes were highly variable and not quantifiable.
(§2) For calibration of the raw data, a 25 mg/mL cesium iodide spectrum from the same day was used. MassLynx V4.1 (Waters, Manchester, UK) was used to assign peak series to protein species and to determine the mass after minimal smoothing. Furthermore, OriginPro 2016 SR2 (OriginLab, Northampton, MA, USA) was used for spectral deconvolution and curve fitting. Correction for nonspecific protein-ligand clustering was performed as described. Corrected peak areas were averaged and normalized to the free-protein signal. Data were based on at least three independent measurements. Python code Panda and Numpy package were used to calculate the specific binding of P dimers according to the glycan clustering ratio obtained from the selected reference protein candidates. Seaborn and matplotlib.pyplot package were imported into a python script to plot the results. The module of sklearn.linear model was applied for linear regression. The matplotlib and heatmap package were used to plot the heatmap.
(§3) Theoretically, the KD is calculated by measuring the concentration of the three components (Pfree, Lfree, PL) in solution. Usually, these values are only indirectly accessible because they require ligand titration up to binding saturation. However, native MS allows for the directly measurement of Pfree and PL, from which Lfree can be calculated using the input concentrations. In the present work, the non-covalent interaction was measured in the gas phase assuming identical ESI and detection efficiency for free and glycan-associated proteins, both for the analyte and the reference protein. […] For P dimers, the equations reflect glycan binding to the individual monomers assuming that binding sites on each monomer are equal and independent.
(§4) Using R described in Equation (3), the KD calculation can be re-written into Equation (4) with the known initial concentration of glycan ligand [L0] and protein [P0], adapted from Sun et al.:(3) R=PLequil∕Pequil=∑nA(PL^n+)∕n∕∑nA(P^n+)∕n (4) KD =L0−RP0/1+R/R
(§5) For the carbohydrate-binding experiments, it was essential to keep the initial protein concentrations and pH value constant during the analysis of the protein-carbohydrate solutions. While acidification occurs in any ESI droplet, the remaining solution in the capillary changes pH over time. Therefore, accumulated spectra were obtained within 10 min after the voltages were applied to minimize the influence of pH changes during the measurements. […]

[2] = target: T2, carbonic anhydrase isozyme II from bovine erythrocytes (CA) (Bos taurus, UniProt P00921); assay: Native MS glycan clustering to reference protein CA; assay type: binding; conditions: on CA
T2 construct: carbonic anhydrase isozyme II from bovine erythrocytes (CA, CAS number 9001-03-0); purchased Sigma-Aldrich (Merck, Germany); host or cells: bovine erythrocytes
T2 sequence (P00921 whole entry): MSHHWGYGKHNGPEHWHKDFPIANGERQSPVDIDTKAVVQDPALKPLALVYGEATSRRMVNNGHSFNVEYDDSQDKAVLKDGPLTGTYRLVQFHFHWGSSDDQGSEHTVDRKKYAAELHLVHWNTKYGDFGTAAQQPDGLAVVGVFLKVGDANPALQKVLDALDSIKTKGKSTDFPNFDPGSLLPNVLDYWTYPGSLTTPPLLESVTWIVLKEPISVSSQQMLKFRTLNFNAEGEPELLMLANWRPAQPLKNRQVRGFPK
Protocol: as §1, §2, §3, §4, §5

[3] = test system: mutated hNoV GII.4 MI001 P dimer; assay: Native MS corrected glycan binding to mutated MI001 P domain; set-up: species or system human norovirus (hNoV); conditions: cyt c reference; 100 µM glycan
[4] = target: T3, alcohol dehydrogenase from Saccharomyces cerevisiae (ADH) (Saccharomyces cerevisiae, UniProt P00330); assay: Native MS glycan clustering to reference protein ADH; assay type: binding; conditions: on ADH
T3 construct: alcohol dehydrogenase from Saccharomyces cerevisiae (ADH, CAS number 9031-72-5); purchased Sigma-Aldrich (Merck, Germany); host or cells: Saccharomyces cerevisiae
T3 sequence (P00330 2-348 limits assumed): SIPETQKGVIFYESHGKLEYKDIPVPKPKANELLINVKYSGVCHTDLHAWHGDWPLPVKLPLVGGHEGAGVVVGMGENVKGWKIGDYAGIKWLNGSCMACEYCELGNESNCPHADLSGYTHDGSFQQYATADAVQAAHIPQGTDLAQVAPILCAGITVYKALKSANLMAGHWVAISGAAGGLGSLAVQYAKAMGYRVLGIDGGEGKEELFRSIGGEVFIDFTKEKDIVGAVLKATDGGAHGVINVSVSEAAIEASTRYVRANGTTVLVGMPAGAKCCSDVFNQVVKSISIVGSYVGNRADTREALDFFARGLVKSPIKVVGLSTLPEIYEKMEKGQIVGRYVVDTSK
Protocol: as §1, §2, §3, §4, §5

[5] = target: T4, L-lactic dehydrogenase from rabbit muscle (LDH) (Oryctolagus cuniculus, UniProt P13491); assay: Native MS glycan clustering to reference protein LDH; assay type: binding; conditions: on LDH
T4 construct: L-lactic dehydrogenase from rabbit muscle (LDH, CAS number 9001-60-9); purchased Sigma-Aldrich (Merck, Germany); host or cells: rabbit muscle
Protocol: as §1, §2, §3, §4, §5

[6] = target: wildtype GII.4 Saga P dimer; conditions: wildtype P dimer; read-out: KD determined by NMR; cited from earlier work

T1 sequence (P02787 20-698): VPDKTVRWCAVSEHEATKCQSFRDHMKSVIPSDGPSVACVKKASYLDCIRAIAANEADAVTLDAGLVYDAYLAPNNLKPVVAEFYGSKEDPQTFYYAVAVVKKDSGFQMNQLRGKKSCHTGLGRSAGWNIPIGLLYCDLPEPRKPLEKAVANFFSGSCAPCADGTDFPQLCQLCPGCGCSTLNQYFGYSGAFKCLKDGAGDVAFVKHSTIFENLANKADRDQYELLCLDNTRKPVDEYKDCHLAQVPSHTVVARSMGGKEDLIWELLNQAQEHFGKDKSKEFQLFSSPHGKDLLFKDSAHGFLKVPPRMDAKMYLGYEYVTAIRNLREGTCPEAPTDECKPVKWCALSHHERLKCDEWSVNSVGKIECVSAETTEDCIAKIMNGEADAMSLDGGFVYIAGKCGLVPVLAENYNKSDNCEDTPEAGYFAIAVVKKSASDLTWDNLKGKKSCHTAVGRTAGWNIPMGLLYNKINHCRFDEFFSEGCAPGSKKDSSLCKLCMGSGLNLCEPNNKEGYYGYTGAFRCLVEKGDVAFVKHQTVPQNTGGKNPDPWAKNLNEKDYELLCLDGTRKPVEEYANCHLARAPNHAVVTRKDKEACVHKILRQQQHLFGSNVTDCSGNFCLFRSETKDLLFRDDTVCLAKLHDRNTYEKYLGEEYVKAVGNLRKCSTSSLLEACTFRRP

Compound | Glycan-Clustering Ratio R ([1]; 100 µM glycan) | Glycan-Clustering Ratio R ([1]; 200 µM glycan) | Glycan-Clustering Ratio R ([1]; 300 µM glycan) | Glycan-Clustering Ratio R ([1]; 400 µM glycan) | Glycan-Clustering Ratio R ([1]; 500 µM glycan) | Glycan-Clustering Ratio R ([2]; 100 µM glycan) | Glycan-Clustering Ratio R ([2]; 200 µM glycan) | Glycan-Clustering Ratio R ([2]; 300 µM glycan) | Glycan-Clustering Ratio R ([2]; 400 µM glycan) | Glycan-Clustering Ratio R ([2]; 500 µM glycan) | Glycan-Clustering Ratio R ([4]; 100 µM glycan) | Glycan-Clustering Ratio R ([4]; 200 µM glycan) | Glycan-Clustering Ratio R ([4]; 300 µM glycan) | Glycan-Clustering Ratio R ([4]; 400 µM glycan) | Glycan-Clustering Ratio R ([4]; 500 µM glycan) | Glycan-Clustering Ratio R ([5]; 100 µM glycan) | Glycan-Clustering Ratio R ([5]; 200 µM glycan) | Glycan-Clustering Ratio R ([5]; 300 µM glycan) | Glycan-Clustering Ratio R ([5]; 400 µM glycan) | Glycan-Clustering Ratio R ([5]; 500 µM glycan) | also measured
CC(=O)N[C@H]1[C@H](O[C@H]2[C@@H](O)[C@@H](CO)O[C@H](O[C@@H]3[C@H](O)[C@@H](O)[C@H](O[C@H]4[C@H](O)[C@@H](O)C(O)O[C@@H]4CO)O[C@@H]3CO)[C@@H]2O)O[C@H](CO)[C@H](O)[C@@H]1O (stereo partly drawn) [Gb4, GalNAc β1-3 Galα1-4Galβ1-4Glc] | 0.36±0.05 | 0.57±0.06 | 0.63±0.02 | 0.69±0.02 | 0.80 ± 0.05 | 0.21±0.01 | 0.32±0.07 | 0.50±0.00 | 0.60±0.05 | 0.75 ± 0.03 | 0.34±0.04 | 0.66±0.03 | 0.81±0.11 | 1.03±0.08 | 1.26 ± 0.03 | 0.35±0.04 | 0.51±0.08 | 0.68±0.02 | 0.80±0.01 | 0.91±0.06 | corrected binding to mutated MI001 P dimer [3]: basically no binding
CC(=O)N[C@H]1[C@@H](O[C@H]2[C@@H](O)[C@@H](CO)O[C@@H](O[C@H]3[C@H](O)[C@@H](CO)OC(O)[C@@H]3NC(C)=O)[C@@H]2O[C@@H]2O[C@@H](C)[C@@H](O)[C@@H](O)[C@@H]2O)O[C@H](CO)[C@H](O)[C@@H]1O (stereo partly drawn) [HBGA A, GalNAcα1-3(Fucα-2)Galβ1-3GlcNAc] | 0.39±0.02 | 0.57±0.05 | 0.65±0.02 | 0.71±0.03 | 0.79 ± 0.03 | 0.20±0.05 | 0.37±0.01 | 0.42±0.02 | 0.57±0.02 | 0.74 ± 0.07 | 0.39± 0.02 | 0.65± 0.02 | 0.88± 0.10 | 0.98± 0.05 | 1.32 ± 0.10 |  |  |  |  |  | 
CC(=O)N[C@H]1C(O)O[C@H](CO)[C@@H](O)[C@@H]1O[C@@H]1O[C@H](CO)[C@H](O)[C@H](O[C@H]2O[C@H](CO)[C@H](O)[C@H](O)[C@H]2O)[C@H]1O[C@@H]1O[C@@H](C)[C@@H](O)[C@@H](O)[C@@H]1O (stereo partly drawn) [HBGA B, Galα1-3(Fucα1-2)Galβ1-3GlcNAc] | 0.37±0.03 | 0.56±0.05 | 0.62±0.03 | 0.74±0.01 | 0.82 ± 0.03 | 0.22±0.03 | 0.32±0.05 | 0.40±0.04 | 0.60±0.05 | 0.75 ± 0.07 | 0.42±0.03 | 0.64±0.06 | 0.97±0.08 | 1.02±0.08 | 1.45 ± 0.11 | 0.38±0.03 | 0.54±0.05 | 0.69±0.02 | 0.77±0.05 | 1.02 ± 0.04 | Kd [6]: 12 mM
